Literature values in patent US5786344A, “Camptothecin drug combinations and methods with reduced side effects” (priority 1995, dated 1998).
Entries after “also recorded” stand apart in the source; their conditions may differ. Counter-ions that a name gives are not always drawn. Like-named read-outs stand apart in the source and are kept apart here.

Legend:
[1] = cited from earlier work; for plasma concentration: single dose 600 mg
[2] = cited from earlier work
p-glycoprotein = settings: cited from earlier work; for inhibition of photoaffinity labeling of p-glycoprotein: photolabeling
[3] = system: multidrug resistant (MDR) cells; settings: cited from earlier work
[4] = listed as Trifluoperazine, dihydrochloride
[5] = plasma/serum/terminal or elimination half-life

CN(C)CCCN1c2ccccc2Sc2ccc(Cl)cc21 [Chlorpromazine hydrochloride, 10H-Phenothiazine-10-propanamine, 2-chloro-N,N-dimethyl-, mono hydrochloride]
volume of distribution ([1]; human, in vivo, im): 21.8 L/kg | bioavailability / dose reaching the systemic circulation ([1]; human, in vivo, po): 32% | volume of distribution ([1]; human, in vivo, po): 80.6 L/kg

CC(C)(Oc1ccc(C2CC2(Cl)Cl)cc1)C(=O)O (centres unmarked) [ciprofibrate]
potency relative to clofibrate ([2]; human, in vivo): more potent than clofibrate

CN1CCN(CCCN2c3ccccc3Sc3ccc(C(F)(F)F)cc32)CC1 [trifluoperazine, 1OH-Phenothiazine, 10-[3-(4-methyl-1-piperazinyl)propyl]-2-(trifluoromethyl)-, dihydrochloride]
inhibition of photoaffinity labeling of p-glycoprotein (p-glycoprotein; dihydrochloride): poor inhibitors | inhibition of photoaffinity labeling of p-glycoprotein (p-glycoprotein; [4]): without inhibiting photoaffinity labeling | reversal of drug resistance ([3]; dihydrochloride): effectively reverse multidrug resistance | reversal of drug resistance [3, 4]: reverses multidrug resistance

CC(=O)O[C@@]12CO[C@@H]1C[C@H](O)[C@@]1(C)C(=O)[C@H](O)C3=C(C)[C@@H](OC(=O)[C@H](O)[C@@H](NC(=O)OC(C)(C)C)c4ccccc4)C[C@@](O)([C@@H](OC(=O)c4ccccc4)[C@H]21)C3(C)C [Taxotere]
inhibition of / interaction with p-glycoprotein (p-glycoprotein): p-glycoprotein inhibitors

COc1cccc2c1C(=O)c1c(O)c3c(c(O)c1C2=O)C[C@@](O)(C(=O)CO)C[C@@H]3O[C@H]1C[C@H](N)[C@H](O)[C@H](C)O1 [doxorubicin, 5,12-Naphthacenedione, (8s-cis)-10-[(3-amino-2,3,6-trideoxy-α-L-lyxo-hexopyranosyl)oxy)-7,8,9,10-tetrahydro-6,8,11-trihydroxy-8-(hydroxyacetyl)-1-methoxy-hydrochloride]
inhibition of / interaction with p-glycoprotein (p-glycoprotein): interacted with p-glycoprotein | oral absorption ([1]; human, in vivo, po): absorbed poorly | half-life [1, 5]: about 30 hr

CCCCCCC(=O)OCCN1CCN(CCCN2c3ccccc3Sc3ccc(C(F)(F)F)cc32)CC1 [Fluphenazine enanthate]
duration of action ([2]; intramuscular or subcutaneous, listed as enanthate salt): 2 wk

COc1ccc(CCN(C)CCCC(C#N)(c2ccc(OC)c(OC)c2)C(C)C)cc1OC (stereo not drawn) [Verapamil hydrochloride, benzeneacetonitrile, α-[3-[[2-(3,4-dimethoxyphenyl)ethyl]-methylamino]propyl]-3,4-dime thoxy-a-(l-methylethyl)-, hydrochloride]
excreted unchanged (urine) ([1]; % of dose): less than 5% | fecal excretion ([1]; % of dose): 16% | oral absorption ([1]; % of oral dose): more than 90%

C[C@@H]1C[C@H]2[C@@H]3CCC4=CC(=O)C=C[C@]4(C)C3=CC[C@]2(C)[C@H]1C(=O)CN1CCN(c2cc(N3CCCC3)nc(N3CCCC3)n2)CC1 [Tirilazad]
inhibition of / interaction with p-glycoprotein (p-glycoprotein): potent inhibitors | inhibition of photoaffinity labeling of p-glycoprotein (p-glycoprotein): more effectively than does verapamil | sensitivity of nonresistant parental cells ([3]; nonresistant parental cells): does not change the sensitivity of nonresistant parental cells | sensitization of resistant cells to killing by vinblastine ([3]; resistant cells): 66 fold

CCN(CC)CCCC(C)Nc1ccnc2cc(Cl)ccc12 (centres unmarked) [Chloroquine phosphate, 1,4-Pentanediamine, N^4-(7-chloro-4-quinolinyl)-N^1, N^1-diethyl-, phosphate (1:2)]
oral absorption ([1]; oral): absorbed almost completely

CC(C)(Oc1ccc(CCNC(=O)c2ccc(Cl)cc2)cc1)C(=O)O [bezafibrate]
potency relative to clofibrate ([2]; human, in vivo): more potent than clofibrate

CO[C@H]1/C=C/O[C@@]2(C)Oc3c(C)c(O)c4c(O)c(c(/C=N/N5CCN(C)CC5)c(O)c4c3C2=O)NC(=O)/C(C)=C\C=C\[C@H](C)[C@H](O)[C@@H](C)[C@@H](O)[C@@H](C)[C@H](OC(C)=O)[C@@H]1C [Rifampin, Rifamycin, 3-[[(4-methyl-1-piperazinyl)imino]methyl]-]
duration of effective levels ([1]; human, in vivo): 8 to 10 h

CCC1(c2ccccc2)C(=O)NC(=O)NC1=O [Phenobarbital, 2,4,6(1H,3H,5H)-Pyrimidinetrione, 5-ethyl-5-phenyl-]
oral absorption ([1]; % of oral dose): Approximately 80% | therapeutic plasma levels ([1]; human, in vivo): 10 to 30 µg/mL | time to peak plasma level ([1]; human, plasma): 16 to 18 h

CN(C)CCCN1c2ccccc2Sc2ccc(C(F)(F)F)cc21 [Triflupromazine hydrochloride, 1OH-Phenothiazine-10-propanamine, N,N-dimethyl-2-(trifluoromethyl)-monohydrochloride]
potency relative to chlorpromazine / other phenothiazines ([2]; human, in vivo): somewhat more potent

CCN1CCN(C(=O)N[C@@H](C(=O)N[C@@H]2C(=O)N3C(C(=O)O)=C(CSc4nnnn4C)CS[C@H]23)c2ccc(O)cc2)C(=O)C1=O [Cefoperazone]
peak plasma concentration ([1]; human, in vivo, im): 80 to 120 µg/mL | peak plasma concentration ([1]; human, in vivo, iv): 250 to 357 µg/mL | biliary secretion ([1]; human, in vivo): 70% | urinary excretion ([1]; human, in vivo): 30% | oral absorption ([1]; oral): absorbed poorly

COc1ccc(C[C@H](N)C(=O)N[C@H]2[C@@H](O)[C@H](n3cnc4c(N(C)C)ncnc43)O[C@@H]2CO)cc1 [puromycin]
inhibition of / interaction with p-glycoprotein (p-glycoprotein): interacted with p-glycoprotein

Cc1ccc(C)c(OCCCC(C)(C)C(=O)O)c1 [Gemfibrozil]
plasma concentration ([1]; after 2 hours): about 15 μg/ml | plasma concentration ([1]; after 9 hours): ~5000 ng/mL | potency relative to clofibrate ([2]; human, in vivo): more potent than clofibrate

O=C1NC(=O)C(c2ccccc2)(c2ccccc2)N1 [Phenytoin, 2,4-Imidazolidinedione, 5,5-diphenyl-]
lethal plasma levels ([1]; human, in vivo): ~100 µg/mL

C=C1[C@@H](C)[C@H]2[C@H](Cc3ccccc3)NC(=O)[C@]23OC(=O)/C=C/[C@H](O)CCC[C@@H](C)C/C=C/[C@H]3[C@@H]1O [cytochalasin B]
inhibition of / interaction with p-glycoprotein (p-glycoprotein): inhibiting p-glycoprotein

C=CC1CN2CCC1CC2C(O)c1ccnc2ccc(OC)cc12 (centres unmarked) [Quinidine polygalacturonate]
gastrointestinal side effects ([2]; human, in vivo): lesser incidence and severity of gastrointestinal side effects

OCCN(CCO)c1nc(N2CCCCC2)c2nc(N(CCO)CCO)nc(N3CCCCC3)c2n1 [Dipyridamole, [2,6-Bis(diethanolamino)-4,9-dipiperidinopyrimido-(5,4-d)pyrimidine]
clinical toxicity ([2]; human, in vivo): quite nontoxic

CS(=O)(=O)O.C[C@]12C=CC(=O)C=C1CC[C@@H]1C2=CC[C@]2(C)[C@@H](C(=O)CN3CCN(c4cc(N5CCCC5)nc(N5CCCC5)n4)CC3)CC[C@@H]12 [U-74389F]
inhibition of / interaction with p-glycoprotein (p-glycoprotein): potent inhibitors

COc1ccc2cc1Oc1ccc(cc1)C[C@H]1c3c(cc4c(c3Oc3cc5c(cc3OC)CCN(C)[C@@H]5C2)OCO4)CCN1C [cepharanthine]
inhibition of photoaffinity labeling of p-glycoprotein (p-glycoprotein): showed inhibition

CN(C)CCCN1c2ccccc2Sc2ccc(Cl)cc21 [chlorpromazine]
inhibition of photoaffinity labeling of p-glycoprotein (p-glycoprotein): poor inhibitors | reversal of drug resistance [3]: effectively reverse multidrug resistance

OCCN1CCN(CC/C=C2/c3ccccc3Sc3ccc(C(F)(F)F)cc32)CC1 [cis-flupenthixol]
reversal of drug resistance [3]: reversed cellular resistance to various drugs only in p-glycoprotein expressing cell lines

COc1cccc2c1C(=O)c1c(O)c3c(c(O)c1C2=O)C[C@@](O)(C(C)O)C[C@@H]3O[C@H]1C[C@H](N)[C@H](O)[C@H](C)O1 (some centres unmarked) [daunorubicinol]
half-life [1, 5]: about 27 hr

CCOC(=O)N(C)[C@@H]1C[C@H]2O[C@@](C)([C@@H]1OC)n1c3ccccc3c3c4c(c5c6ccccc6n2c5c31)C(=O)NC4=O [NA-382, N-ethoxycarbonyl-7-oxo-staurosporine]
inhibition of / interaction with p-glycoprotein (p-glycoprotein): inhibiting drug binding to p-glycoprotein

CC(=O)[C@H]1CC[C@H]2[C@@H]3CC=C4C[C@@H](O)CC[C@]4(C)[C@H]3CC[C@]12C [pregnenolone]
inhibition of / interaction with p-glycoprotein (p-glycoprotein): inhibited the transporting activity of p-glycoprotein

O=C1CN=C(c2ccccc2Cl)c2cc([N+](=O)[O-])ccc2N1 [Clonazepam, 2H-1,4-Benzodiazepin-2-one, 5-(2-chlorophenyl)-1,3-dihydro-7-nitro-]
therapeutic plasma levels ([1]; human, in vivo): 0.02 to 0.08 µg/mL

COc1cc([C@@H]2c3cc4c(cc3[C@@H](O[C@@H]3O[C@@H]5CO[C@@H](C)O[C@H]5[C@H](O)[C@H]3O)[C@H]3COC(=O)[C@H]23)OCO4)cc(OC)c1O [etoposide]
inhibition of / interaction with p-glycoprotein (p-glycoprotein): interacted with p-glycoprotein | peak plasma concentration ([1]; human, in vivo, iv): 30 µg/mL | oral absorption ([1]; human, in vivo, po): about 50% | concentration in CSF relative to plasma ([1]; human, in vivo): 1-10% | excreted unchanged (urine) ([1]; human, in vivo): Approximately 40% | half-life ([1]; human, in vivo): about 8 hours

OCCN1CCN(CCCN2c3ccccc3Sc3ccc(C(F)(F)F)cc32)CC1 [fluphenazine]
reversal of drug resistance [3]: reversed cellular resistance to various drugs only in p-glycoprotein expressing cell lines

C=C[C@@]1(C)CC(=O)[C@@H]2[C@@]3(C)CCCC(C)(C)[C@@H]3[C@H](O)[C@H](OC(C)=O)[C@@]2(C)O1 [1,9-dideoxyforskolina]
inhibition of / interaction with p-glycoprotein (p-glycoprotein): p-glycoprotein inhibitors

CCN(CC)CCCC(C)Nc1ccnc2cc(Cl)ccc12 (centres unmarked) [Chloroquine]
reversal of drug resistance [3]: partially reverses drug resistance

CC(=O)[C@H]1CC[C@H]2[C@@H]3CCC4=CC(=O)CC[C@]4(C)[C@H]3CC[C@]12C [progesterone]
inhibition of / interaction with p-glycoprotein (p-glycoprotein): inhibited the transporting activity of p-glycoprotein; also recorded: inhibits their drug efflux

CC(C)OC(=O)C(C)(C)Oc1ccc(C(=O)c2ccc(Cl)cc2)cc1 [fenofibrate]
potency relative to clofibrate ([2]; human, in vivo): more potent than clofibrate

OCCN1CCN(CCCN2c3ccccc3Sc3ccc(C(F)(F)F)cc32)CC1 [Fluphenazine hydrochloride]
oral absorption ([1]; oral): absorbed rapidly | onset of action ([2]; human, in vivo): ≤ 1 h | potency relative to chlorpromazine / other phenothiazines ([2]; human, in vivo): more potent | duration of action ([2]; oral or intramuscular): 6 h

CCCCCCCCCC(=O)OCCN1CCN(CCCN2c3ccccc3Sc3ccc(C(F)(F)F)cc32)CC1 [Fluphenazine decanoate]
duration of action ([2]; intramuscular or subcutaneous): about 4 wk
